Results as given in PMC7473840, “Identification of a molecular locus for normalizing dysregulated GABA release from interneurons in the Fragile X brain” (Molecular Psychiatry, 2018).

How the values were obtained:
[1] = tested on: PNs, WT cerebellar slices; assay: Spontaneous firing of PNs, cell-attached, WT; assay type: cell-based, mouse; settings: 10 μM
[2] = tested on: PNs, Fmr1-KO cerebellar slices; assay: Spontaneous firing of PNs, cell-attached, Fmr1-KO; assay type: cell-based, mouse; settings: 10 μM, Fmr1-KO
[3] = tested on: Kv1.2–FMRP interaction, cerebellar homogenates; assay: Co-IP of Kv1.2 with FMRP (anti-FMRP antibody), peptide blocking; assay type: binding; settings: WT mouse cerebellar homogenates; 250 μM peptide added prior to anti-FMRP antibody; immunoblot; at least in triplicate
Description: Whole cerebellums from WT and Fmr1 KO mice were homogenized in ice-cold Pull-Down buffer (1% Lubrol, 50 mM Tris–HCl, pH 7.4, 10 nM Na-orthovanadate, 30 mM Na-pyrophosphate, 50 mM NaF, 20 μm ZnCl2, and 0.25 mM PMSF, with the addition of protease inhibitor cocktail) using a Potter-Elvehjem grinding chamber (VWR). Samples were then centrifuged at 5000g for 20 min and 500 μL of supernatants were transferred into 1.5 ml Eppendorf tubes. 1:100 dilutions of anti-FMRP (Abcam 17722), anti-Kv1.2 (K14/16; Neuromab), anti-Kv1.2 ext-c (extracellular; Alomone labs), anti-Kv1.2 N-term (NBP1-42802; Novus), or anti-GAPDH (GAPDH-71.1; 1:80,000; Sigma-Aldrich) antibodies were added to the homogenate and incubated at 4 °C under continuous agitation for 2 h. A total 30 μL of a 1:1 mixture of pre-washed protein A and protein G magnabeads (Genscript) was then added and the samples were incubated under the same conditions for another 2 h. Beads were washed 4 times with PBS-Tween (0.2% Tween w/v) and then centrifuged at 3000g for 1 min. A sample was kept to verify total protein input. Protein was disassociated from the beads with the addition of 30 μL of 2× loading buffer (4% SDS, 20% glycerol w/v, 0.1 M dithiothreitol, 100 mM Tris–HCl, pH 6.8) then submitting the samples to 3 min at 95 °C. […] Bands were quantified as previously described using the AlphaEase SA software. […]

BC–PN synapse, WT = assay: sIPSCs from PNs, paired BC–PN recording, WT synapses; assay type: cell-based, mouse; settings: peptide 2.5 mM infused into WT BCs, before and 20 min after; n = 5-6
[4] = target: T1, recombinant full-length FMRP (isoform 1) (Homo sapiens, UniProt Q06787); assay: In vitro intrinsic protein fluorescence binding assay; settings: 500–1000 μM peptide and 1 μM FMRP, 100 mM NaCl, 50 mM Na2PO4 pH 7.4, 2 mM DTT, 20 °C, excitation 287 nm
T1 construct: containing cDNA for full-length human FMRP; His-SUMO (N, cleaved yes); made in house; host or cells: Escherichia coli BL21 (DE3) Codon Plus
Description: Small Ubiquitin-like Modifier (SUMO) fusion construct containing cDNA for full-length human FMRP was generated by gene synthesis (GenScript USA Inc.) and subcloned into a pET SUMO vector (Invitrogen). […] The pET SUMO–FMRP construct was transformed into Escherichia coli BL21 (DE3) Codon Plus cells and grown at 37 °C in Lennox broth medium. Protein expression was induced with 0.5 mM isopropyl-β-D-thiogalactopyranoside when optical density reached ~0.6, followed by 18 h of additional growth at 16 °C. Cells were harvested by centrifugation and pellets stored at −20 °C. In order to purify SUMO–FMRP, thawed pellets were resuspended in lysis buffer [50 mM Tris, pH 8.0, 500 mM NaCl, 20 mM imidazole, 10% glycerol, 250 mM arginine, 5 mM benzamidine, and 2 mM dithiothreitol (DTT)], supplemented with DNAse 1 and cOmplete™ Protease Inhibitor Cocktail (Sigma-Aldrich). After cell lysis and centrifugation, the filtered supernatant was loaded onto a 20 ml NiNTA column equilibrated in the same lysis buffer. The column was extensively washed with 20 column volumes (CV) of the same buffer supplemented with 100 mM imidazole. Elution of SUMO-fusion FMRP was performed using 100–500 mM imidazole gradient, and protein-containing fractions were combined and a 6× His tagged Ulp protease was added. Cleavage of the His-SUMO tag was performed overnight in a cold room (7 °C) while dialyzing in 4 L of 50 mM Tris, pH 8.0, 500 mM NaCl, 50 mM imidazole, 10% glycerol, 250 mM arginine, 5 mM benzamidine, and 2 mM DTT. Complete cleavage of the SUMO tag by Ulp was confirmed by SDS-PAGE and the protein of interest was separated from the Ulp protease and SUMO tag by passing the cleavage reaction over a second NiNTA column. Flow-through and wash fractions containing protein of interest were combined and then loaded onto a Superdex 200 gel filtration column pre-equilibrated with the same lysis buffer.
The eluted purified proteins were analyzed by both SDS-PAGE and mass spectrometry, and the combined fractions were dialyzed three times in 5 L of Fluorescence Binding Buffer (100 mM NaCl, 50 mM Na2PO4 pH 7.4, 2 mM DTT). After filtering through a 0.22 μm GV Durapore Centrifugal Filter Unit (Millipore), FMRP concentration was determined by absorbance at 280 nm using a molar extinction coefficient of 48,360 M^−1 cm^−1, and the protein was used for binding studies with Kv1.2 C-terminal peptides.
All measurements were carried out in the Fluorescence Binding Buffer at 20 °C using a PTI Quanta Master 80 Spectrofluorometer (HORIBA Scientific) by monitoring intrinsic protein fluorescence with an excitation wavelength of 287 nm. Prior to performing a binding titration for any of the peptides, a full emission spectrum (300–450 nm) of the peptide:FMRP complex was compared to that of apo-FMRP. Differences in the spectrum of the complex (500–1000 μM peptide and 1 μM FMRP) and apo-FMRP at the same concentration (i.e., fluorescence quenching, enhancement or shifts of the emission maximum) indicated binding. For each of these peptides, binding measurements were performed by adding aliquots of saturated 1 µM FMRP:peptide complex (titration solution) to 400 μL of 1 μM apo-FMRP solution as described by Wells and Di Cera. Briefly, at each titration step, a volume vD was removed from the cuvette containing the apo-FMRP and replaced by an equal volume of the titration solution (1 μM FMRP: 200–500 μM peptide complex). As a result, the concentration of FMRP (1 μM) and total volume of solution in the cuvette, V = 400 μL, remained constant while the concentration of the peptide at the ith titration step, [peptide]i, was increased, and given by
[peptide]i = [peptide]0^i.D^i+[peptide]∞^i.(1 − D^i),
where, [peptide]0 was the initial peptide concentration in the cuvette, [peptide]∞ was the peptide concentration in the titration solution, and D was the dilution factor, D = (V − vD)/V. […]

Row | Compound | spontaneous firing of PNs, WT [1] | spontaneous firing of PNs, KO [2] | inhibition of Kv1.2–FMRP binding (co-IP) [3] | amplitude and frequency of sIPSCs (BC–PN synapse, WT) | change of fluorescence emission spectrum of FMRP (binding) [4] | change of fluorescence emission spectrum of FMRP (binding) ([4]; listed as doubly-phosphorylated scrambled peptide) | change of fluorescence emission spectrum of FMRP (binding) ([4]; listed as non-phosphorylated) | change of fluorescence emission spectrum of FMRP (binding) ([4]; listed as non-phosphorylated Kv1.2 C-terminal peptide)
1 | NS(=O)(=O)c1cccc2c1c([N+](=O)[O-])cc1nc(O)c(O)nc12 [NBQX] | little effect on the spontaneous firing | little effect on the spontaneous firing | – | – | – | – | – | –
2 | IKPSTLSDSRAKpSSDPpSKPSIK [scrambled] | – | – | Neither the non-phosphorylated peptide with the identical sequence (Kv436-457, ^436PKIPSSPDLKKSRSASTISKSD^457) nor the doubly-phosphorylated scrambled peptide (IKPSTLSDSRAKpSSDPpSKPSIK) inhibited the Kv1.2–FMRP binding activity | but not the non-phosphorylated or scrambled phosphorylated peptide, significantly elevated the amplitude and frequency of sIPSCs | no change in the fluorescence emission spectrum of FMRP | no binding | – | –
3 | PKIPSSPDLKKSRSASTISKSD [Kv436-457] | – | – | Neither the non-phosphorylated peptide with the identical sequence (Kv436-457, ^436PKIPSSPDLKKSRSASTISKSD^457) nor the doubly-phosphorylated scrambled peptide (IKPSTLSDSRAKpSSDPpSKPSIK) inhibited the Kv1.2–FMRP binding activity | but not the non-phosphorylated or scrambled phosphorylated peptide, significantly elevated the amplitude and frequency of sIPSCs | – | – | no change in the fluorescence emission spectrum of FMRP | no binding
